{
  "source": "patent US5374634A",
  "about": "“Pyridine derivatives” (Kyowa Hakko Kogyo Co., Ltd., priority 1992, dated 1994)",
  "data": [
    {"system": "dd-strain male mice", "test": "Acute toxicity test (oral, minimum lethal dose)", "assay_type": "in vivo", "details": "mortality observed for 7 days", "protocol": "A test compound was orally administered to three dd-strain male mice weighing 20±1 g. The minimum lethal dose (MLD) was determined by observing the mortality for 7 days after the administration.", "units": {"MLD (minimum lethal dose)": "mg/kg"}, "values": [
      {"compound": "COc1ccc(C(c2ccc(OC)cc2)c2cnccc2C(=O)N2CCN(c3ccccc3Cl)CC2)cc1", "note": "[Compound 6, 1-(2-Chlorophenyl)-4-{[3-bis(4-methoxyphenyl)methyl]-isonicotinyl}piperazine]", "MLD (minimum lethal dose)": "> 300"},
      {"compound": "O=C(c1ccncc1C(c1ccc(O)cc1)c1ccc(O)cc1)N1CCN(c2ccccc2Cl)CC1", "note": "[Compound 13, 1-(2-Chlorophenyl)-4-{[3--bis(4,hydroxyphenyl)methyl]isonicotinyl}piperazine]", "MLD (minimum lethal dose)": "> 1000"},
      {"compound": "O=C(c1ccncc1C(c1ccc(O)cc1)c1ccc(O)cc1)N1CCN(c2cccc(Cl)c2)CC1", "note": "[Compound 18, 1-(3-Chlorophenyl)-4-{[3-bis(4-hydroxyphenyl)methyl]isonicotinyl}piperazine]", "MLD (minimum lethal dose)": "> 300"}
    ]},
    {"system": "PTH-induced calcium release (i.e. bone resorption) from bones (calvaria)", "test": "Bone resorption-inhibiting effect: inhibition of PTH-induced calcium release from cultured calvaria", "assay_type": "cell-based, dd mice (5- to 6-day-old)", "details": "mouse half calvaria culture; PTH 1×10^-8 M; calcium in medium at 96 hours; test compound 3×10^-6, 1×10^-5, 3×10^-5 M", "protocol": "The bone resorption-inhibiting effect of the compounds of the present invention is illustrated by the following experiment.\nCalvaria were aseptically removed from 5- to 6-day-old dd mice, washed with Dulbecco's modified phosphate-buffered saline not containing calcium and magnesium (product of Gibco Oriental Co.), and cut along the sagittal suture into left and right halves. Each half calvarium was cultured in 1.5 ml medium consisting of Dulbecco's modified Eagle medium (high glucose) (product of Gibco Oriental Co.) supplemented with 15% heat-inactivated (at 56° C. for 20 minutes) horse serum, 2.5% heat-inactivated fetal bovine serum, plus 1% antibiotic-antimycotic liquid. The test compound was dissolved in dimethylsulfoxide, and a 10 μl portion of the solution was added to the culture to the final concentrations of 3×10^-6 M, 1×10^-5 M and 3×10^-5 M. PTH (parathyroid hormone) was dissolved in 0.15M sodium chloride (pH 3), and a 3 μl-portion of the resulting solution was added to the culture to the final concentration of 1×10^-8 M. Cultures were incubated at 37° C. in a water-saturated atmosphere consisting of 5% CO2 and 95% air. Typically, cultures were maintained for 96 hours and the media were changed at 48 hours. The test compound and PTH which had been processed in the same manner as described above were added thereto. In order to investigate the action of the test compound on PTH-induced calcium release (i.e. bone resorption) from bones, there were prepared 3 groups: control group, PTH treated group (1×10^-8 M) and test compound- and PTH-treated group (3×10^-6 M, 1×10^-5 M, 3×10^-5 M). Bone resorption was assessed by measuring the accumulation of calcium in the culture media collected at 96 hours of culturing. The total calcium concentrations were determined using Calcium C-Test Wako (product of Wako). The inhibition rate was calculated therefrom according to the equation given below and 50% inhibitory concentration (IC50) was determined. [formula] CO : Total calcium concentration in the culture free from both PTH and test compound\nCp : Total calcium concentration in the culture treated with PTH only\nCD : Total calcium concentration in the culture treated with both PTH and test compound.", "units": {"IC50": "µM"}, "values": [
      {"compound": "O=C(NC12CC3CC(CC1C3)C2)c1ccncc1C(c1ccc(O)cc1)c1ccc(O)cc1", "note": "[Compound 9, N-(Tricyclo[3.3.1.0^3,7]non-3-yl)-3-[bis(4-hydroxyphenyl)methyl]-4-pyridinecarboxamide]", "IC50": 18.6},
      {"compound": "O=C(c1ccncc1C(c1ccc(O)cc1)c1ccc(O)cc1)N1CCCCC1", "note": "[Compound 10]", "IC50": 19.2},
      {"compound": "O=C(NC12CC3CC(CC(C3)C1)C2)c1ccncc1C(c1ccc(O)cc1)c1ccc(O)cc1", "note": "[Compound 11, N-(Tricyclo[3.3.1.1^3,7]dec-1-yl)-3-[bis(4-hydroxyphenyl)methyl]-4-pyridinecarboxamide]", "IC50": 20.3},
      {"compound": "O=C(NC1CCCCCCC1)c1ccncc1C(c1ccc(O)cc1)c1ccc(O)cc1", "note": "[Compound 12, N-Cyclooctyl-3-[bis(4-hydroxyphenyl)methyl]-4-pyridinecarboxamide]", "IC50": 11.6},
      {"compound": "O=C(c1ccncc1C(c1ccc(O)cc1)c1ccc(O)cc1)N1CCN(c2ccccc2Cl)CC1", "note": "[Compound 13, 1-(2-Chlorophenyl)-4-{[3--bis(4,hydroxyphenyl)methyl]isonicotinyl}piperazine]", "IC50": 6},
      {"compound": "O=C(Nc1ccc(O)cc1)c1ccncc1C(c1ccc(O)cc1)c1ccc(O)cc1", "note": "[Compound 15, N-(4-Hydroxyphenyl)-3-[bis(4-hydroxyphenyl)methyl]-4-pyridinecarboxamide]", "IC50": 75.6},
      {"compound": "O=C(c1ccncc1C(c1ccc(O)cc1)c1ccc(O)cc1)N1CCN(c2cccc(C(F)(F)F)c2)CC1", "note": "[Compound 16, 1-(3-Trifluoromethylphenyl)-4-{[3-bis(4-hydroxyphenyl)methyl]isonicotinyl}piperazine]", "IC50": 7.1},
      {"compound": "O=C(c1ccncc1C(c1ccc(O)cc1)c1ccc(O)cc1)N1CCN(c2ccc(Cl)cc2)CC1", "note": "[Compound 17, 1-(4-Chlorophenyl)-4-{[3-bis(4-hydroxyphenyl)methyl]isonicotinyl}piperazine]", "IC50": 24.9},
      {"compound": "O=C(c1ccncc1C(c1ccc(O)cc1)c1ccc(O)cc1)N1CCN(c2cccc(Cl)c2)CC1", "note": "[Compound 18, 1-(3-Chlorophenyl)-4-{[3-bis(4-hydroxyphenyl)methyl]isonicotinyl}piperazine]", "IC50": 14},
      {"compound": "O=C(c1ccncc1C(c1ccc(O)cc1)c1ccc(O)cc1)N1CCN(c2ccccc2O)CC1", "note": "[Compound 19, 1-(2-Hydroxyphenyl)-4-{[3-bis(4-hydroxyphenyl)methyl]isonicotinyl}piperazine]", "IC50": 8.9},
      {"compound": "O=C(c1ccncc1C(c1ccc(O)cc1)c1ccc(O)cc1)N1CCN(c2ccccc2)CC1", "note": "[Compound 20, 1-Phenyl-4-{[3-bis(4-hydroxyphenyl)methyl]isonicotinyl}piperazine]", "IC50": 75.6},
      {"compound": "Cc1cccc(N2CCN(C(=O)c3ccncc3C(c3ccc(O)cc3)c3ccc(O)cc3)CC2)c1", "note": "[Compound 21, 1-(3-Methylphenyl)-4-{[3-bis(4-hydroxyphenyl)methyl]isonicotinyl}piperazine]", "IC50": 8.5},
      {"compound": "O=C(c1ccncc1C(c1ccc(O)cc1)c1ccc(O)cc1)N1CCN(c2ncccn2)CC1", "note": "[Compound 22, 1-(2-Pyrimidyl)-4-{[3-bis(4-hydroxyphenyl)methyl]isonicotinyl}piperazine]", "IC50": 19.6}
    ]}
  ]
}
